Patent US9512086B2, “Compound for promoting apoptosis of cancer cells and a pharmaceutical composition containing the same and uses thereof” (National Chiao Tung University, priority 2014, dated 2016)

How the values were obtained:
[1] = test system: RKO human rectal cancer cell line; experiment: MTT cell viability, RKO cells; assay type: cell-based; settings: 24 hours, in comparison with Iressa
Description: (§1) The above cell lines were plated in 96-well plates at a density of 1×10^4 cells/well for 16 to 20 hours. […] After drug treatment, the cell lines were washed with phosphate-buffered saline (hereinafter referred to PBS), and were replaced with fresh complete RPMI-1640 medium for 2 days. Thereafter, the medium was replaced and the cells were incubated with 0.5 mg/ml of 3-(4,5-dimethylthiazol-2-yl)-2,5-diphenyltetrazolium bromide reagent (hereinafter referred to MTT, Sigma Chemical Co., St. Louis, Mo.) in complete RPMI-1640 medium for 4 hours. The viable cells converted MTT to formazan that generates a blue-purple color when dissolved in dimethyl sulfoxide (hereinafter referred to DMSO). The intensity of formazan was measured at 565 nm using a plate reader (VERSAmax, Molecular Dynamics, Sunnyvale, Calif.). The relative percentage of cell viability was calculated by dividing the absorbance of treated cells by that of the control in each experiment.

A549 cell line = experiment: MTT cell viability, A549 cell line; assay type: cell-based, human; settings: Homo sapiens, A549 cell line, 24 hours, MTT
Description: as §1
After drug treatment, the cells were washed with PBS and replaced with fresh complete RPMI-1640 medium for 2 days. Thereafter, the medium was replaced and the cells were incubated with 0.5 mg/mL of MTT reagent (Sigma Chemical Co., St. Louis, Mo.) in complete RPMI-1640 medium for 4 hours. The intensity of formazan was measured at 565 nm using a plate reader (VERSAmax, Molecular Dynamics, Sunnyvale, Calif.). The relative percentage of cell viability was calculated by dividing the absorbance of treated cells by that of the control in each experiment.

[2] = test system: BFTC905 human bladder cancer cell line; experiment: MTT cell viability, BFTC905 cells; assay type: cell-based; settings: 24 hours, in comparison with Iressa
Description: as §1

**Q.** Which results are given for `COC(=O)CCC(=O)N1CCN(CCCOc2cc3c(Nc4ccc(F)c(Cl)c4)ncnc3cc2OC)CC1` [Analogue-1, methyl 4-(4-(3-(4-(3-chloro-4-fluorophenylamino)-7-methoxyquinazolin-6-yloxy)propyl)piperazin-1-yl)-4-oxobutanoate]?
**A.** toxicity effect on RKO cells [1]: more effective on cell death of RKO cells and BFTC905 cells than Iressa; viability at 10 µM (A549 cell line): 89.1%; viability at 20 µM (A549 cell line): 85.6%; viability at 40 µM (A549 cell line): 75.9%; viability at 60 µM (A549 cell line): 74.4%; viability at 80 µM (A549 cell line): 75.9%; toxicity effect on BFTC905 cells [2]: more effective on cell death of RKO cells and BFTC905 cells than Iressa

**Q.** How did the “toxicity effect on RKO cells” value [1] turn out when `COc1cc2ncnc(Nc3ccc(F)c(Cl)c3)c2cc1OCCCN1CCN(C(=O)CCC(=O)O)CC1` [Analogue-2, 4-(4-(3-(4-(3-chloro-4-fluorophenylamino)-7-methoxyquinazolin-6-yloxy)propyl)piperazin-1-yl)-4-oxobutanoic acid] was run?
**A.** Its value is “no toxicity effect on RKO cells”.

**Q.** And the “toxicity effect on BFTC905 cells” value [2]?
**A.** Its value is “minor toxicity effect on BFTC905 cells”.

**Q.** `CCCCCCCCCCCCCCOC(=O)CCC(=O)N1CCN(CCCOc2cc3c(Nc4ccc(F)c(Cl)c4)ncnc3cc2OC)CC1` [Analogue-20, tetradecyl 4-(4-(3-(4-(3-chloro-4-fluorophenylamino)-7-methoxyquinazolin-6-yloxy)propyl)piperazin-1-yl)-4-oxobutanoate] was tested. Which viability at 10 µM (A549 cell line) did it give?
**A.** Its viability at 10 µM is 100%.

**Q.** And the viability at 20 µM (A549 cell line)?
**A.** The viability at 20 µM was 92.3%.

**Q.** And the viability at 40 µM (A549 cell line)?
**A.** Its viability at 40 µM is 88.6%.

**Q.** What about the viability at 60 µM (A549 cell line) of the same molecule?
**A.** The viability at 60 µM was 84.9%.

**Q.** And the viability at 80 µM (A549 cell line)?
**A.** The viability at 80 µM was 77.2%.

**Q.** Which results are given for `COC(=O)CCCC(=O)N1CCN(CCCOc2cc3c(Nc4ccc(F)c(Cl)c4)ncnc3cc2OC)CC1` [Analogue-3, methyl 5-(4-(3-(4-(3-chloro-4-fluorophenylamino)-7-methoxyquinazolin-6-yloxy)propyl)piperazin-1-yl)-5-oxopentanoate]?
**A.** viability at 10 µM (A549 cell line): 99.9%; viability at 20 µM (A549 cell line): 94.8%; viability at 40 µM (A549 cell line): 91.9%; viability at 60 µM (A549 cell line): 91.3%; viability at 80 µM (A549 cell line): 89.8%

**Q.** For `CCOC(=O)CCC(=O)N1CCN(CCCOc2cc3c(Nc4ccc(F)c(Cl)c4)ncnc3cc2OC)CC1` [Analogue-8, ethyl 4-(4-(3-(4-(3-chloro-4-fluorophenylamino)-7-methoxyquinazolin-6-yloxy)propyl)piperazin-1-yl)-4-oxobutanoate], which viability at 10 µM (A549 cell line) is on record?
**A.** Its viability at 10 µM is 77.6%.

**Q.** And the viability at 20 µM (A549 cell line)?
**A.** Its viability at 20 µM is 70%.

**Q.** What about the viability at 40 µM (A549 cell line) of the same molecule?
**A.** Its viability at 40 µM is 67.4%.

**Q.** What about the viability at 60 µM (A549 cell line) of the same molecule?
**A.** Its viability at 60 µM is 61.6%.

**Q.** And the viability at 80 µM (A549 cell line)?
**A.** Its viability at 80 µM is 35.6%.

**Q.** For `CCCCCCCOC(=O)CCC(=O)N1CCN(CCCOc2cc3c(Nc4ccc(F)c(Cl)c4)ncnc3cc2OC)CC1` [Analogue-13, heptyl 4-(4-(3-(4-(3-chloro-4-fluorophenylamino)-7-methoxyquinazolin-6-yloxy)propyl)piperazin-1-yl)-4-oxobutanoate], which viability at 10 µM (A549 cell line) is on record?
**A.** Its viability at 10 µM is 89.1%.

**Q.** And the viability at 20 µM (A549 cell line)?
**A.** The viability at 20 µM was 79.9%.

**Q.** And the viability at 40 µM (A549 cell line)?
**A.** Its viability at 40 µM is 59.1%.

**Q.** What about the viability at 60 µM (A549 cell line) of the same molecule?
**A.** The viability at 60 µM was 35.7%.

**Q.** What about the viability at 80 µM (A549 cell line) of the same molecule?
**A.** The viability at 80 µM was 27.2%.

**Q.** How did the viability at 10 µM (A549 cell line) turn out when `CCCCCCCCCOC(=O)CCC(=O)N1CCN(CCCOc2cc3c(Nc4ccc(F)c(Cl)c4)ncnc3cc2OC)CC1` [Analogue-15, nonyl 4-(4-(3-(4-(3-chloro-4-fluorophenylamino)-7-methoxyquinazolin-6-yloxy)propyl)piperazin-1-yl)-4-oxobutanoate] was run?
**A.** Its viability at 10 µM is 90%.

**Q.** What about the viability at 20 µM (A549 cell line) of the same molecule?
**A.** The viability at 20 µM was 79.7%.

**Q.** What about the viability at 40 µM (A549 cell line) of the same molecule?
**A.** Its viability at 40 µM is 17.9%.

**Q.** What about the viability at 60 µM (A549 cell line) of the same molecule?
**A.** Its viability at 60 µM is 10.3%.

**Q.** And the viability at 80 µM (A549 cell line)?
**A.** The viability at 80 µM was 7.8%.

**Q.** With `CCCCOC(=O)CCC(=O)N1CCN(CCCOc2cc3c(Nc4ccc(F)c(Cl)c4)ncnc3cc2OC)CC1` [Analogue-10, butyl 4-(4-(3-(4-(3-chloro-4-fluorophenylamino)-7-methoxyquinazolin-6-yloxy)propyl)piperazin-1-yl)-4-oxobutanoate] as the molecule, how does the viability at 10 µM (A549 cell line) read?
**A.** Its viability at 10 µM is 94.4%.

**Q.** And the viability at 20 µM (A549 cell line)?
**A.** Its viability at 20 µM is 86%.

**Q.** What about the viability at 40 µM (A549 cell line) of the same molecule?
**A.** Its viability at 40 µM is 79.1%.

**Q.** What about the viability at 60 µM (A549 cell line) of the same molecule?
**A.** Its viability at 60 µM is 64.1%.

**Q.** And the viability at 80 µM (A549 cell line)?
**A.** Its viability at 80 µM is 36.9%.

**Q.** `CCCCCCCCCCCCCCCCCCCOC(=O)CCC(=O)N1CCN(CCCOc2cc3c(Nc4ccc(F)c(Cl)c4)ncnc3cc2OC)CC1` [Analogue-25, nonadecyl 4-(4-(3-(4-(3-chloro-4-fluorophenylamino)-7-methoxyquinazolin-6-yloxy)propyl)piperazin-1-yl)-4-oxobutanoate] was tested. Which viability at 10 µM (A549 cell line) did it give?
**A.** The viability at 10 µM was 94.5%.

**Q.** And the viability at 20 µM (A549 cell line)?
**A.** The viability at 20 µM was 94.8%.

**Q.** What about the viability at 40 µM (A549 cell line) of the same molecule?
**A.** Its viability at 40 µM is 92.3%.

**Q.** And the viability at 60 µM (A549 cell line)?
**A.** The viability at 60 µM was 89.3%.

**Q.** And the viability at 80 µM (A549 cell line)?
**A.** The viability at 80 µM was 88.4%.
